Measurements from ChEMBL document CHEMBL4359906, “Design and synthesis of new N-terminal fatty acid modified-antimicrobial peptide analogues with potent in vitro biological activity” (Eur J Med Chem, 2019).
≈ marks a conversion by molar mass, not a printed value. Calls of active or inactive are those of the source. No cut-off for these calls is given here.

How the values were obtained:
Staphylococcus aureus [1] = test: Antibacterial activity against methicillin-resistant Staphylococcus aureus 936 after 18 hrs by CLSI based broth microdilution method; format: functional; details: Staphylococcus aureus, 936, 18 h
Erythrocyte = test: Hemolytic activity in human RBC measured after 1 hr by microplate reader analysis; format: ADME, cell-based
Escherichia coli [2] = test: Ratio of antibacterial activity against Escherichia coli ATCC 25922 in presence of NaCl to antibacterial activity against Escherichia coli ATCC 25922; format: functional
Staphylococcus aureus [3] = test: Ratio of antibacterial activity against Staphylococcus aureus ATCC 25923 in presence of KCl to antibacterial activity against Staphylococcus aureus ATCC 25923; format: functional
Escherichia coli [4] = test: Disruption of membrane integrity in Escherichia coli ATCC 25922 assessed as membrane damage by measuring PI fluorescence at 2 times of MIC incubated for 1 hr by PI dye based flow cytometric analysis (reference value: 1.35%); format: functional
Escherichia coli [5] = test: Induction of membrane disruption in Escherichia coli ATCC 25922 assessed as rough membrane surface at 4 times of MIC after 2 hrs by SEM analysis; format: functional, organism-based
Escherichia coli [6] = test: Induction of inner membrane permeabilization in Escherichia coli ATCC 43837 assessed as increase in ONPG release at 4 times of MIC by ONPG dye based assay; format: organism-based
Klebsiella pneumoniae [7] = test: Potentiation of polymyxin B-induced antibacterial activity against Klebsiella pneumoniae ATCC 700603 assessed as FICI after 18 hrs by checker board assay; format: functional
Escherichia coli [8] = test: Antibacterial activity against Escherichia coli ATCC 25922 at 0.5 times MIC incubated for 18 hrs measured for 15 passages by CLSI based broth microdilution method; format: functional, organism-based
Pseudomonas aeruginosa [9] = test: Antibiofilm activity against Pseudomonas aeruginosa ATCC 27853 at 0.25 to 2 times of MIC after 24 hrs by crystal violet staining based assay; format: functional, organism-based
Pseudomonas aeruginosa [10] = test: Potentiation of rifampicin-induced antibacterial activity against Pseudomonas aeruginosa ATCC 27853 assessed as FICI after 18 hrs by checker board assay; format: functional
Escherichia coli [11] = test: Disruption of membrane integrity in Escherichia coli ATCC 25922 assessed as membrane damage by measuring PI fluorescence at 4 times of MIC incubated for 1 hr by PI dye based flow cytometric analysis (reference value: 1.35%); format: functional
Pseudomonas aeruginosa [12] = test: Antibacterial activity against Pseudomonas aeruginosa ATCC 27853 after 18 hrs by CLSI based broth microdilution method; format: functional; details: ATCC 27853, 18 h
Escherichia coli [13] = test: Ratio of MIC for Escherichia coli ATCC 25922 preincubated for 1 hr in presence of 10% mouse serum and measured after 18 hrs to MIC for antibacterial activity against Escherichia coli ATCC 25922 after 18 hrs; format: functional
Klebsiella pneumoniae [14] = test: Antibacterial activity against Klebsiella pneumoniae ATCC 700603 after 18 hrs by CLSI based broth microdilution method; format: functional; details: Klebsiella pneumoniae, 700603, 18 h
Staphylococcus aureus [15] = test: Antibacterial activity against Staphylococcus aureus ATCC 25923 after 18 hrs by CLSI based broth microdilution method; format: functional; details: ATCC 25923, 18 h
Escherichia coli [16] = test: Ratio of antibacterial activity against Escherichia coli ATCC 25922 in presence of KCl to antibacterial activity against Escherichia coli ATCC 25922; format: functional
Escherichia coli [17] = test: Induction of outer membrane permeabilization in Escherichia coli ATCC 25922 measured up to 12 mins by NPN-dye based assay; format: organism-based
Staphylococcus aureus [18] = test: Ratio of antibacterial activity against Staphylococcus aureus ATCC 25923 in presence of FeCl3 to antibacterial activity against Staphylococcus aureus ATCC 25923; format: functional
Klebsiella pneumoniae [19] = test: Potentiation of rifampicin-induced antibacterial activity against Klebsiella pneumoniae ATCC 700603 assessed as FICI after 18 hrs by checker board assay; format: functional
Escherichia coli [20] = test: Antibiofilm activity against Escherichia coli ATCC 25922 after 24 hrs by crystal violet staining based assay; format: functional, organism-based
Escherichia coli [21] = test: Ratio of antibacterial activity against Escherichia coli ATCC 25922 in presence of MgCl2 to antibacterial activity against Escherichia coli ATCC 25922; format: functional
Pseudomonas aeruginosa [22] = test: Antibiofilm activity against Pseudomonas aeruginosa ATCC 27853 after 24 hrs by crystal violet staining based assay; format: functional, organism-based
Staphylococcus aureus [23] = test: Antibiofilm activity against Staphylococcus aureus ATCC 25923 after 24 hrs by crystal violet staining based assay; format: functional, organism-based
Escherichia coli [24] = test: Antibacterial activity against Escherichia coli ATCC 25922 after 18 hrs by CLSI based broth microdilution method; format: functional; details: ATCC 25922, 18 h
Escherichia coli [25] = test: Potentiation of polymyxin B-induced antibacterial activity against Escherichia coli ATCC 25922 assessed as FICI after 18 hrs by checker board assay; format: functional
Staphylococcus aureus [26] = test: Ratio of antibacterial activity against Staphylococcus aureus ATCC 25923 in presence of NaCl to antibacterial activity against Staphylococcus aureus ATCC 25923; format: functional
Escherichia coli [27] = test: Induction of membrane disruption in Escherichia coli ATCC 25922 assessed as degeneration in membrane at 4 times of MIC after 2 hrs by SEM analysis; format: functional, organism-based
Escherichia coli [28] = test: Antibacterial activity against Escherichia coli ATCC 43837 after 18 hrs by CLSI based broth microdilution method; format: functional; details: ATCC 43837, 18 h
Escherichia coli [29] = test: Induction of membrane disruption in Escherichia coli ATCC 25922 assessed as corrugated membrane surface at 4 times of MIC after 2 hrs by SEM analysis; format: functional, organism-based
[30] = Selectivity index, ratio of MHC10 for human RBC to geometric mean of peptide MIC for gram positive bacteria; format: toxicity; details: human red blood cells, read-out: Selectivity Index
Escherichia coli [31] = test: Induction of membrane disruption in Escherichia coli ATCC 25922 assessed as fracture in membrane at 4 times of MIC after 2 hrs by SEM analysis; format: functional, organism-based
DNA = test: Binding affinity to Escherichia coli ATCC 25922 genomic DNA after 30 mins by agarose gel electrophoresis; format: nucleic-acid assay
Escherichia coli [32] = test: Induction of inner membrane permeabilization in Escherichia coli ATCC 43837 assessed as increase in ONPG release at 1 to 2 times of MIC by ONPG dye based assay; format: organism-based
Escherichia coli [33] = test: Antimicrobial activity against Escherichia coli ATCC 25922 at 1 mM preincubated for 6 hrs in presence of 2000 ug/ml trypsin and measured after 18 hrs by microplate reader analysis; format: functional, organism-based
Escherichia coli [34] = test: Potentiation of rifampicin-induced antibacterial activity against Escherichia coli ATCC 25922 assessed as FICI after 18 hrs by checker board assay; format: functional
Escherichia coli [35] = test: Ratio of antibacterial activity against Escherichia coli ATCC 25922 in presence of FeCl3 to antibacterial activity against Escherichia coli ATCC 25922; format: functional
Escherichia coli [36] = test: Antimicrobial activity against Escherichia coli ATCC 25922 at 1 mM preincubated for 6 hrs in presence of 2 ug/ml chymotrypsin and measured after 18 hrs by microplate reader analysis; format: functional, organism-based
[37] = Selectivity index, ratio of MHC10 for human RBC to geometric mean of peptide MIC for gram negative bacteria; format: toxicity; details: human red blood cells, read-out: Selectivity Index
Pseudomonas aeruginosa [38] = test: Potentiation of polymyxin B-induced antibacterial activity against Pseudomonas aeruginosa ATCC 27853 assessed as FICI after 18 hrs by checker board assay; format: functional

SMILES	MIC (Staphylococcus aureus [1])	MHC10 (Erythrocyte)	Ratio (Escherichia coli [2])	Ratio (Staphylococcus aureus [3])	Activity (Escherichia coli [4])	Activity (Escherichia coli [5])	Activity (Escherichia coli [6])	fractional inhibitory concentration index (FICI) (Klebsiella pneumoniae [7])	Activity (Escherichia coli [8])	inhibition (Pseudomonas aeruginosa [9])	fractional inhibitory concentration index (FICI) (Pseudomonas aeruginosa [10])	Activity (Escherichia coli [11])	MIC (Pseudomonas aeruginosa [12])	Ratio (Escherichia coli [13])	MIC (Klebsiella pneumoniae [14])	MIC (Staphylococcus aureus [15])	Ratio (Escherichia coli [16])	Activity (Escherichia coli [17])	Ratio (Staphylococcus aureus [18])	fractional inhibitory concentration index (FICI) (Klebsiella pneumoniae [19])	further results
CCCCCC(=O)NC(Cc1cn(CCCC[C@H](NC(C)=O)C(=O)NCC(=O)N[C@@H](CC(C)C)C(=O)N[C@@H](CC(C)C)C(=O)N[C@H](CCCCN)C(=O)N[C@@H](CCCNC(=N)N)C(=O)N[C@H](C(=O)N[C@H](CCCCN)C(=O)N[C@H](C(=O)N[C@@H](CC(C)C)C(=O)N[C@@H](CC(C)C)C(N)=O)[C@@H](C)O)[C@@H](C)CC)nn1)C(=O)NCC(=O)N[C@@H](CC(C)C)C(=O)N[C@@H](CC(C)C)C(=O)N[C@H](CCCCN)C(=O)N[C@@H](CCCNC(=N)N)C(=O)N[C@H](C(=O)N[C@H](CCCCN)C(=O)N[C@H](C(=O)N[C@@H](CC(C)C)C(=O)N[C@@H](CC(C)C)C(N)=O)[C@@H](C)O)[C@@H](C)CC (stereo not given in full)	64 µM (≈ 173 µg/mL)	> 256 µM	2 - 4	2 - 4	22.4%	Active	Active	0.1875	Active	Active	0.5	38.5%	8 µM (≈ 21.6 µg/mL)	1	16 µM (≈ 43.1 µg/mL)	64 µM (≈ 173 µg/mL)	2 - 4	Dose-dependent effect	2 - 4	0.5625	inhibition (Escherichia coli [20]): Dose-dependent effect; Ratio (Escherichia coli [21]): 2 - 4; inhibition (Pseudomonas aeruginosa [22]): Dose-dependent effect; inhibition (Staphylococcus aureus [23]): Dose-dependent effect; MIC (Escherichia coli [24]): 8 µM (≈ 21.6 µg/mL); fractional inhibitory concentration index (FICI) (Escherichia coli [25]): 0.375; Ratio (Staphylococcus aureus [26]): 2 - 4; Activity (Escherichia coli [27]): Active; MIC (Escherichia coli [28]): 8 µM (≈ 21.6 µg/mL); Activity (Escherichia coli [29]): Active; selectivity ratio [30]: 11.6; Activity (Escherichia coli [31]): Active; Activity (DNA): Dose-dependent effect; Activity (Escherichia coli [32]): Active; Activity (Escherichia coli [33]): Active; fractional inhibitory concentration index (FICI) (Escherichia coli [34]): 0.5625; Ratio (Escherichia coli [35]): 2 - 4; Activity (Escherichia coli [36]): Active; selectivity ratio [37]: 51.2; fractional inhibitory concentration index (FICI) (Pseudomonas aeruginosa [38]): 0.3125
CCCCCCCCCC(=O)NC(Cc1cn(CCCC[C@H](NC(C)=O)C(=O)NCC(=O)N[C@@H](CC(C)C)C(=O)N[C@@H](CC(C)C)C(=O)N[C@H](CCCCN)C(=O)N[C@@H](CCCNC(=N)N)C(=O)N[C@H](C(=O)N[C@H](CCCCN)C(=O)N[C@H](C(=O)N[C@@H](CC(C)C)C(=O)N[C@@H](CC(C)C)C(N)=O)[C@@H](C)O)[C@@H](C)CC)nn1)C(=O)NCC(=O)N[C@@H](CC(C)C)C(=O)N[C@@H](CC(C)C)C(=O)N[C@H](CCCCN)C(=O)N[C@@H](CCCNC(=N)N)C(=O)N[C@H](C(=O)N[C@H](CCCCN)C(=O)N[C@H](C(=O)N[C@@H](CC(C)C)C(=O)N[C@@H](CC(C)C)C(N)=O)[C@@H](C)O)[C@@H](C)CC (stereo not given in full)	16 µM (≈ 44 µg/mL)	32 µM	2 - 4	2 - 4	56.3%	Active	Active	0.5625	Active	Active	0.5625	82.3%	8 µM (≈ 22 µg/mL)	1	16 µM (≈ 44 µg/mL)	8 µM (≈ 22 µg/mL)	2 - 4	Dose-dependent effect	2 - 4	0.5	inhibition (Escherichia coli [20]): Dose-dependent effect; Ratio (Escherichia coli [21]): 2 - 4; inhibition (Pseudomonas aeruginosa [22]): Dose-dependent effect; inhibition (Staphylococcus aureus [23]): Dose-dependent effect; MIC (Escherichia coli [24]): 8 µM (≈ 22 µg/mL); fractional inhibitory concentration index (FICI) (Escherichia coli [25]): 0.3125; Ratio (Staphylococcus aureus [26]): 2 - 4; Activity (Escherichia coli [27]): Active; MIC (Escherichia coli [28]): 8 µM (≈ 22 µg/mL); Activity (Escherichia coli [29]): Active; selectivity ratio [30]: 3.69; Activity (Escherichia coli [31]): Active; Activity (DNA): Dose-dependent effect; Activity (Escherichia coli [32]): Active; Activity (Escherichia coli [33]): Active; fractional inhibitory concentration index (FICI) (Escherichia coli [34]): 0.3125; Ratio (Escherichia coli [35]): 2 - 4; Activity (Escherichia coli [36]): Active; selectivity ratio [37]: 3.2; fractional inhibitory concentration index (FICI) (Pseudomonas aeruginosa [38]): 0.25
